Data on one molecule can be found in US20240091267A1, “PRE-TREATMENT OF MSC WITH PPARB/DELTA AGONIST FOR TREATMENT OF ISCHEMIA-REPERFUSION INJURY” (Universite de Montpellier, priority 2020, published 2024).

Test [1] has as its system infarcted myocardial tissue. Kind of test: MSC grafted in infarcted myocardial tissue, fluorescence of Dil-labeled MSC in LV sections. Also on record: species or system mouse (C57BL/6J). The conditions noted are these: Dil-labeled MSC pretreated 1 μM vs naive MSC. The procedure: MSCs were pre-incubated for 24 hours with either PPARβ/δ antagonists GSK3787 (0.1 and 1 μM), PPARβ/δ inverse agonist GSK0660 (0.1 and 1 μM) or PPARβ/δ agonist GW0742 (0.1, 1 and 5 μM) before to be washed with PBS and used in co-cultures experiments or injected in the myocardium. When indicated, MSCs were labeled with the fluorescent cell-tracer CM-Dil (Molecular Probes). MSC were collected and suspended in 5 mL PBS containing CM-Dil (10^7 cells/10 μg) prior to be incubated at 37° C. for 5 minutes followed by 15 minutes at 4° C., in the dark. Labeled MSCs were washed 2 times in PBS, resuspended in PBS and maintained at 4° C. prior to be injected in the myocardium.
At the end of ex vivo experiments, left ventricles (LV) were fixated in formol and embedded in paraffin. Each left ventricle was cut from the apex through the base (4 μm sections each 150 μm). Paraffin-embedded sections were deparaffinised then rehydrated through an alcohol gradient. Sections were mounted in Mowiol (Biovalley). LV Sections were scanned by the Zeiss Axio Scan Z1 slide scanner (Zeiss, Oberkochen, Germany). Scanning was done with the ×20 objective. Images were analyzed using ImageJ.

Test [2] relates to TXNIP (Thioredoxin interacting protein). The conditions noted are these: neuronal stress; neonatal hypoxic-ischemic injury in rats; cited from earlier work.
In test [3] the test system is isolated perfused hearts from C57B16 mice. Kind of test: Ex vivo Langendorff ischemia-reperfusion, infarct size, effect of preconditioning duration (Example 3). Also on record: species or system mouse (C57BL/6). The conditions noted are these: MSC preconditioned 24 h with 1 μM, 5,000 cells/ml, vs IR.
Test [4] has as its system C57B16 mouse hearts subjected to IR injury. Kind of test: Ex vivo Langendorff ischemia-reperfusion, infarct size (Example 2, naive or pretreated MSC). Also on record: species or system mouse (C57BL/6J). The conditions noted are these: MSC 2,500 cells/mL (3.10^5 MSC) pretreated 24 h with GW0742 1 μM; mean±SD.

As to `Cc1cc(SCc2sc(-c3ccc(C(F)(F)F)c(F)c3)nc2C)ccc1OCC(=O)O` [GW0742], the “Percentage of fluorescence (MSC grafted in infarcted myocardium) increased by” value in test [1] came out at 3.5 times. Moreover, the TXNIP inhibition result in test [2] was “inhibits TXNIP”. The “Decrease in infarct size” value in test [3] turned out to be 54.6%. In addition, the Infarct size entry in test [4] is listed as “same cardioprotective effect”.
